This note sets out measurements from patent publication US20180125805A1, “PROPHYLACTIC/THERAPEUTIC AGENT FOR VIRUS INFECTIONS WHICH COMPRISES ALA COMPOUND” (SBI Pharmaceuticals Co., Ltd., priority 2015, published 2018).

The experiment deals with Hepatitis B virus (HBV) genotype C. As to the kind of experiment: HBV DNA content in culture supernatants of HBV-infected PXB hepatocytes, quantitative PCR with TaqMan probe. The class given is cell-based, human hepatitis B virus. As to conditions: for DNA content of HBV in the culture supernatants: PXB hepatocytes, replicates No. 1-3. The procedure:
PXB hepatocytes prepared from “PXB-Mouse (registered trademark)” (manufactured by PhoenixBio) were used as test samples to examine the effect of a change in virus load by adding 5-ALA or the like to a medium. […] Therefore, PXB-Mouse is utilized as a human in vivo prediction model of hepatitis virus infections in pharmacokinetic studies.
Hepatitis B virus (HBV) genotype C was suspended in dHCGM medium (DMEM+10% FBS, 44 mM NaHCO3, 15 μg/mL L-proline, 0.25 μg/mL insulin, 50 […], 5 ng/mL EGF, 0.1 mM Asc-2P, 2% DMSO) containing 4% polyethylene glycol in the virus load of 2×10^6 per well to give 250 μL/well of a HBV infection medium. The sequence of HBV genotype C is disclosed in a public data bank such as GenBank and the accession number is AB246345.1.
5-ALA and sodium ferrous citrate (SFC) were blended in dHCGM medium at the concentrations shown in Table 1 below to prepare 250 μL each of test media. As a positive control medium, a medium prepared by dissolving 2.5 nM entecavir (manufactured by Santa Cruz Biotechnology, Inc.) in dHCGM medium was used.
PXB hepatocytes, which are primary cultured liver cells isolated by a two-step collagenase perfusion procedure (Yamasaki C, et al. Drug Metab Pharmacokinet. 2010, 25:539-550.) from 12- to 16-week-old PXB mice having a body weight of 11 g or more, were suspended in Dulbecco's modified Eagle's medium (DMEM) with 10% fetal bovine serum (FBS) (DMEM+10% FBS) containing 100 IU/mL penicillin G, 100 μg/mL streptomycin and 20 mM HEPES, seeded in a 24-well plate coated with type I collagen at a density of 4×10^5 cells/well, and incubated at 37° C. under 5% CO2. The next day, the medium was removed, and 500 μL of DMEM+10% FBS was then added to each well. Thereafter, the medium was removed again, 250 μL of the above-mentioned HBV infection medium or a non-infection medium and 250 μL each of the above-mentioned test medium were added to each well to provide 500 μL each of evaluation media. The evaluation media were incubated at 37° C. under 5% CO2 for 20 to 28 hours. On day 1, 2, 7, 12 and 17 after HBV virus infection, the media were replaced by 500 μL each of the above-mentioned evaluation media. On day 12, 17 and 22 after the virus infection, culture supernatants were collected and the DNA content of HBV in the supernatants was determined by a quantitative PCR assay with TaqMan probe. The incubation period after the virus infection was 22 days. The results are shown in the following Tables 2 and 3 and the graph of FIG. 1. The ordinate of FIG. 1 indicates the DNA content of HBV in the culture supernatants.

Where “and” joins values, the source holds several entries; their conditions need not be identical. Identical values can stand only once.

As to `C=C1[C@H](CO)[C@@H](O)C[C@@H]1n1cnc2c(=O)[nH]c(N)nc21` [ETV, entecavir, reference compound], the “DNA content of HBV in the culture supernatants” value (shortened to “DNA content of HBV”) (ETV 2.5 nM (positive control), day 12 after virus infection) worked out at 4.4 log copies/mL; the “DNA content of HBV” value (ETV 2.5 nM (positive control), day 17 after virus infection) was 4.2 log copies/mL and 4.8 log copies/mL and 4.1 log copies/mL; the “DNA content of HBV” value (ETV 2.5 nM (positive control), day 22 after virus infection) is 4.4 log copies/mL and 4.0 log copies/mL and 3.9 log copies/mL.

In the case of `NCC(=O)CCC(=O)O` [ALA, 5-aminolevulinic acid], the “DNA content of HBV” value is 6.0 log copies/mL and 6.1 log copies/mL and 5.8 log copies/mL (ALA 1 mM, day 12 after virus infection); 6.0 log copies/mL (2×) and 5.8 log copies/mL (ALA 1 mM, day 17 after virus infection); 6.1 log copies/mL and 5.9 log copies/mL and 6.0 log copies/mL (ALA 1 mM, day 22 after virus infection).

On to sodium ferrous citrate [SFC], for which the “DNA content of HBV” value runs as follows: (SFC 0.5 mM, day 12 after virus infection) 6.1 log copies/mL (2×) and 6.2 log copies/mL; (SFC 0.5 mM, day 17 after virus infection) 6.3 log copies/mL and 6.4 log copies/mL (2×); (SFC 0.5 mM, day 22 after virus infection) 6.5 log copies/mL. Besides, under “SFC 500 μM, day 12 and 17 after the virus infection, P<0.05”, the “proliferation of HBV virus (FIG. 1)” value is reported as “significantly inhibited”.
